In one test the test system is SW1990. Kind of test: CellTiter-Glo Reagent cancer cell line proliferation assay, SW1990. It counts as cell-based. To be noted: Homo sapiens; SW1990, KRAS(G12D) homozygous, 24 hr. From the text:
(§1) The following cancer cell lines were employed: • AsPC-1 human pancreatic adenocarcinoma, homozygous KRAS(G12D), (ATCC, #CRL-1682); A-427 human lung carcinoma, heterozygous KRAS(G12D), (ATCC, #HTB-53); AGS human gastric adenocarcinoma, heterozygous KRAS(G12D), (ATCC, #CRL-1739); GP2D human colon adenocarcinoma, heterozygous KRAS(G12D), (Sigma Aldrich, 95090714); SW1990 human pancreatic adenocarcinoma, homozygous KRAS(G12D), (ATCC, #CRL2172); LU65A human lung giant cell carcinoma, heterozygous KRAS(G12C), (JCRB Cell Bank, #JCRB0054); NCIH727 human lung carcinoid, heterozygous KRAS(G12V), (ATCC, #CRL-5815); MKN1 human gastric adenosquamous carcinoma KRAS (wt), (JCRB Cell Bank, #JCRB0252). Cell lines were cultured according to ATCC, JCRB and Sigma Aldrich recommendations.
Cells were plated in 96-well tissue culture plates at 4,000 cells/well and incubated at 37° C./5% CO2 for 24 hr in 100 μl of media. 3-fold serial dilutions of each test compound were prepared ranging from 20 μM to 1.02 nM. Cells were then treated with test compounds at various concentrations with a final concentration of 0.5% DMSO/well, and then incubated at 37° C./5% CO2 for 24 hr. 100 μl of CellTiter-Glo® Reagent (Promega Corporation, Madison, WI) was added to each well and processed according manufacturer's protocol. Results were analyzed and IC50-values were calculated in GraphPad 7 software.

Another test relates to AGS. Kind of test: CellTiter-Glo Reagent cancer cell line proliferation assay, AGS. In kind it is cell-based, human. The note with it: Homo sapiens, 24 h, KRAS(G12D) heterozygous. In short, it runs like this: (§2)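 Cells were seeded at 4,000 per well, grown 24 hr at 37° C./5% CO2, then exposed 24 hr to 3-fold dilutions from 20 μM to 1.02 nM (0.5% DMSO final). Viability was read with CellTiter-Glo luminescence, and IC50 values were calculated.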

The next test concerns GP2D. Kind of test: CellTiter-Glo Reagent cancer cell line proliferation assay, GP2D. It counts as cell-based. To be noted: Homo sapiens, KRAS(G12D) heterozygous, 24 hr. The method, boiled down: as §2
The target of test [1] is T1, KRAS(G12D) (Homo sapiens, UniProt P01116, G12D). Kind of test: cell-based. It counts as cell-based. On the set-up: Cell lines SW1990 and GP2D that express KRAS(G12D); host or cells: SW1990. The note with it: for Dmax: SW1990, read-out: WB data SW1990 DMax; for DC50: read-out: WB data SW1990 DC50, SW1990, KRAS degradation, 24 hr. As to the method: Cell lines were cultured according to ATCC, JCRB and Sigma Aldrich recommendations.
(§3) Cells were then washed with cold PBS, aspirated and cold RIPA buffer containing a protease/phosphatase inhibitor cocktail was added to lyse cells. After centrifugation, the total protein concentrations of cell lysates were determined using the BCA protein assay. Samples were normalized for equivalent protein concentrations, 5× SDS-PAGE loading buffer added and denatured at 100° C. for 10 min. 20 μl of each sample/well was loaded on a SDS-PAGE gel and electrophoresed for 20 min at 80 V, then 120 V for 1.5 hr. Gels were then electroblotted to nitrocellulose membranes using a wet-transfer method at 250 mA for 2.5 hr. Membranes were incubated with blocking buffer for 1 hr and washed 3 times with TBST for 5 min. Membranes were then incubated with anti-KRAS (Sigma-Aldrich, #SAB1404011) and anti-β-Actin monoclonal antibodies (Cell Signaling Technology, #3700) diluted in blocking buffer at 4° C. overnight per the manufacturer's recommendations. After washing 3 times, blots were incubated with appropriately labeled secondary antibodies for 1 hr at room temperature and washed again. Fluorescence imaging and quantitation was performed using a LI-COR Odyssey. Results was analyzed using GraphPad Prism 7 software. Compound concentrations that induced KRAS degradation (DC50 and DCmax) were calculated using GraphPad Prism 7 software.
Target sequence in this assay (P01116 1-188 isoform P01116-2 G12D): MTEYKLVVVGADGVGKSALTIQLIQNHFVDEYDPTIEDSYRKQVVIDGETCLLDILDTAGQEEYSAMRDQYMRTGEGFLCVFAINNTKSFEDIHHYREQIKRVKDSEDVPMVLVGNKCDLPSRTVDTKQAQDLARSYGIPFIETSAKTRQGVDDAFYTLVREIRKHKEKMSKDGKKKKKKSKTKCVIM

Test [2] addresses T1, KRAS(G12D). Kind of test: KRAS Western Blot Protein Degradation Assay, GP2D. It counts as cell-based. On the set-up: Cell lines SW1990 and GP2D that express KRAS(G12D); host or cells: GP2D. The note with it: for Dmax: GP2d, read-out: WB data GP2D DMax; for DC50: read-out: WB data GP2D DC50, GP2D, KRAS degradation, 24 hr.
Excerpt: as §1
as §3, with “Cell lines SW1990 and GP2D that express KRAS(G12D), LU65A that expresses KRAS(G12C), and NCIH727 that expresses KRAS(G12V) were seeded in 6- or 12-well tissue culture plates, and after 1 hr, test compounds were added at various concentrations and incubated at 37° C./5% CO2 for 24 hr. Cells” for “Cells”
Target sequence in this assay (P01116 1-185 isoform P01116-2 G12D limits assumed): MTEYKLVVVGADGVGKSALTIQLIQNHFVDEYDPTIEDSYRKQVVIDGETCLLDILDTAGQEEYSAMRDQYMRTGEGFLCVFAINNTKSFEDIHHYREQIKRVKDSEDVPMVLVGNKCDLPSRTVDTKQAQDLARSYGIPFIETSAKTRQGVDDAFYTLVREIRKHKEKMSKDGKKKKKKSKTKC
A general note: In western blotting, separated proteins are transferred to a membrane and probed.

pIC50: −log10 of the molar value. Where a name gives a salt, the structure may show the parent alone.

As usually defined, the pIC50 is the IC50 on a negative log10 scale, so that one unit is a factor of ten. A higher pIC50 goes with a small IC50. Usually DC50 stands for the concentration at which degradation of the target reaches its halfway point.

`C#Cc1c(F)ccc2cc(O)cc(-c3ncc4c(N5C[C@H]6CC[C@@H](C5)N6)nc(OCC5(CN(C)Cc6ccc(C7CN(c8ccc9c(c8)CN(C8CCC(=O)NC8=O)C9=O)C7)cc6)CC5)nc4c3F)c12` (stereo partly drawn) [Compound 92, 3-(5-(3-(4-((((1-(((4-((1R,5S)-3,8-diazabicyclo[3.2.1]octan-3-yl)-7-(8-ethynyl-7-fluoro-3-hydroxynaphthalen-1-yl)-8-fluoropyrido[4,3-d]pyrimidin-2-yl)oxy)methyl)cyclopropyl)methyl)(methyl)amino)methyl)phenyl)azetidin-1-yl)-1-oxoisoindolin-2-yl) piperidine-2,6-dione formate]: the pIC50 in the test with SW1990, in the test on AGS and with GP2D was above 7.00 in each case.

On to `C#Cc1c(F)ccc2cc(O)cc(-c3ncc4c(N5CC6CCC(C5)N6)nc(OCC5(CN6CCN(CC7CCN(c8ccc9c(=O)n(C%10CCC(=O)NC%10=O)ncc9c8)CC7)CC6)CC5)nc4c3F)c12` (stereo not shown) [Compound 88], for which the pIC50 in the test with SW1990, with AGS and with GP2D was above 7.00 in each case. For the same compound, the Dmax at KRAS(G12D) [1] lay within 10 to 50%. Moreover, the 50% degradation concentration (DC50) on KRAS(G12D) [1] is above 1000 nM.

Take `O=CO.[2H]C([2H])([2H])Oc1nc(-c2cc(O)cc3ccc(F)c(C#C)c23)c(F)c2nc(OCC3(CN4CCN(CC5CCN(c6ccc7c(c6)CN(C6CCC(=O)NC6=O)C7=O)CC5)CC4)CC3)nc(N3CC4CCC(C3)N4CC#N)c12` (stereo not shown) [Compound 94]: the pIC50 in the test with AGS and with GP2D was above 7.00 each time. For the same compound, the Dmax on KRAS(G12D) [2] is above 50%. Also, at KRAS(G12D) [2], the DC50 is below 100 nM.

Turning to `C#Cc1c(F)ccc2cc(O)cc(-c3nc(OC)c4c(N5CC6CCC(C5)N6CC#N)nc(OCC5(CN6CCN(CC7CCN(c8ccc9c(c8)CN(C8CCC(=O)NC8=O)C9=O)CC7)CC6)CC5)nc4c3F)c12` (stereo not shown) [Compound 100, 2-(3-(2-((1-((4-((1-(2-(2,6-dioxopiperidin-3-yl)-1-oxoisoindolin-5-yl)piperidin-4-yl)methyl)piperazin-1-yl)methyl)cyclopropyl)methoxy)-7-(8-ethynyl-7-fluoro-3-hydroxynaphthalen-1-yl)-8-fluoro-5-methoxypyrido[4,3-d]pyrimidin-4-yl)-3,8-diazabicyclo[3.2.1]octan-8-yl) acetonitrile formate], the pIC50 in the test on AGS was above 7.00. At KRAS(G12D) [2], the Dmax is above 50% and the DC50 was below 100 nM. Further, the pIC50 in the test on GP2D was above 7.00.

Regarding `[2H]C([2H])([2H])Oc1nc(-c2cc(O)cc3ccc(F)c(C#C)c23)c(F)c2nc(OCC3(CN4CCN(CC5CCN(c6ccc7c(c6)CN(C6CCC(=O)NC6=O)C7=O)CC5)CC4)CC3)nc(N3CC4CCC(C3)N4CC(C)C)c12` (stereo not shown) [Compound 96], the pIC50 in the test with AGS is below 6.00. In addition, at KRAS(G12D) [2], the Dmax lay in the range of 10 to 50% and the DC50 is above 1000 nM. Besides, the pIC50 in the test with GP2D was 6.00 to 7.00.

`C#Cc1c(F)ccc2cc(O)cc(-c3ncc4c(N5CC6CCC(C5)N6CC#N)nc(OCC5(CN6CCN(CC7CCN(c8ccc9c(c8)CN(C8CCC(=O)NC8=O)C9=O)CC7)CC6)CC5)nc4c3F)c12` (stereo not shown) [Compound 101] showed a negative-log IC50 (pIC50) in the test with AGS above 7.00. In addition, at KRAS(G12D) [2], the Dmax was above 50% and the DC50 was below 100 nM. Besides, in the test with GP2D, the pIC50 is above 7.00.

For `C#Cc1c(F)ccc2cc(O)cc(-c3ncc4c(N5C[C@H]6CC[C@@H](C5)N6)nc(OCC5(CN6CC(C#Cc7ccc8c(c7)CN(C7CCC(=O)NC7=O)C8=O)C6)CC5)nc4c3F)c12` (stereo partly drawn) [Compound 90, 3-(5-((1-((1-(((4-((1R,5S)-3,8-diazabicyclo[3.2.1]octan-3-yl)-7-(8-ethynyl-7-fluoro-3-hydroxynaphthalen-1-yl)-8-fluoropyrido[4,3-d]pyrimidin-2-yl)oxy)methyl)cyclopropyl)methyl)azetidin-3-yl)ethynyl)-1-oxoisoindolin-2-yl) piperidine-2,6-dione formate], the pIC50 in the test with SW1990, with AGS and in the test on GP2D was above 7.00 each time. Also, the Dmax at KRAS(G12D) [1] was in the range of 10 to 50%. In addition, the DC50 at KRAS(G12D) [1] was above 1000 nM.

Take `O=CO.[2H]C([2H])([2H])Oc1nc(-c2cc(O)cc3ccc(F)c(C#C)c23)c(F)c2nc(OCC3(CN4CCN(CC5CCN(c6ccc7c(c6)CN(C6CCC(=O)NC6=O)C7=O)CC5)CC4)CC3)nc(N3CC4CCC(C3)N4CCC#N)c12` (stereo not shown) [Compound 95]: the pIC50 with AGS was 6.00 to 7.00. Besides, on KRAS(G12D) [2], the Dmax is below 10% and the DC50 was above 1000 nM. In the test with GP2D, this compound showed a pIC50 above 7.00.

In turn, `O=CO.[2H]C([2H])([2H])Oc1nc(-c2cc(O)cc3ccc(F)c(C#C)c23)c(F)c2nc(OCC3(CN4CCN(CC5CCN(c6ccc7c(c6)CN(C6CCC(=O)NC6=O)C7=O)CC5)CC4)CC3)nc(N3CC4CCC(C3)N4CCO)c12` (stereo not shown) [Compound 98] showed a pIC50 in the test on AGS above 7.00. Further, at KRAS(G12D) [2], the Dmax was above 50% and the DC50 is below 100 nM. The same compound gave a pIC50 in the test on GP2D above 7.00.

Regarding `[2H]C([2H])([2H])Oc1nc(-c2cc(O)cc3ccc(F)c(C#C)c23)c(F)c2nc(OCC3(CN4CCN(CC5CCN(c6ccc7c(c6)CN(C6CCC(=O)NC6=O)C7=O)CC5)CC4)CC3)nc(N3CC4CCC(C3)N4CC(F)(F)F)c12` (stereo not shown) [Compound 97], the pIC50 in the test with AGS is 6.00 to 7.00. On KRAS(G12D) [2], the Dmax lay within 10 to 50% and the half-maximal degradation concentration (DC50) is above 1000 nM. The same compound showed a pIC50 in the test on GP2D of 6.00 to 7.00.

With `C#Cc1c(F)ccc2cc(O)cc(-c3ncc4c(N5CC6CCC(C5)N6)nc(OCC5(CN6CCC(C#Cc7ccc8c(c7)CN(C7CCC(=O)NC7=O)C8=O)CC6)CC5)nc4c3F)c12` (stereo not shown) [Compound 91], the negative-log IC50 (pIC50) is 6.00 to 7.00 with SW1990, above 7.00 with AGS and above 7.00 in the test on GP2D.

With `C#Cc1c(F)ccc2cc(O)cc(-c3ncc4c(N5CC6CCC(C5)N6)nc(OCC5(CN6CCN(CC#Cc7ccc8c(c7)CN(C7CCC(=O)NC7=O)C8=O)CC6)CC5)nc4c3F)c12` (stereo not shown) [Compound 89], the pIC50 was 6.00 to 7.00 with SW1990, above 7.00 in the test with AGS and above 7.00 with GP2D. For the same compound, at KRAS(G12D) [1], the Dmax was in the range of 10 to 50%. Also, the DC50 at KRAS(G12D) [1] was above 1000 nM.

Compound `C#Cc1c(F)ccc2cc(O)cc(-c3ncc4c(N5CC6CCC(C5)N6C(=O)C(F)(F)F)nc(OCC5(CN6CCN(CC7CCN(c8ccc9c(c8)CN(C8CCC(=O)NC8=O)C9=O)CC7)CC6)CC5)nc4c3F)c12` (stereo not shown) [Compound 78] gave a negative-log IC50 (pIC50) in the test with SW1990 above 7.00. Besides, on KRAS(G12D) [1], the Dmax lay in the range of 10 to 50% and the DC50 was 100 to 1000 nM.

The values are drawn from patent US20260325654A1, “METHODS AND COMPOSITIONS FOR TARGETED PROTEIN DEGRADATION” (Ranok Therapeutics (Hangzhou) Co. Ltd., priority 2023, published 2026).
